In brackets after ≈: the same amount, converted by molar mass.
Test system: NF-κB
Assay: NF-κB luciferase reporter assay in A549/NF-κBLuc cells stimulated with IL-1β
Type: cell-based, human
Details: Homo sapiens, A549, A549/NF-κBLuc cells; compound added 1 hour before IL-1β, then 3 hours incubation; luciferase activity; read-out: NF-κB Inhibitory Activity (IC50)
Procedure: Effect on Human Lung Cancer-Derived Cell A549 (A549/NF-κBluc) Containing Stably Introduced Luciferase Plasmid (pNFκB-Luc, Stratagene. U.S.A.) Regulated by NF-κB Binding Sequence
Using Lipofectamine (Lifetech Oriental, Tokyo), pNFκB-Luc and pSV2neo (Clontech, U.S.A.) were co-transfected into the A549 cell (ATCC CCL185) and G418 sulfate (1 mg/ml, Lifetech Oriental) was added to the culture medium to select cells containing stably introduced pNFκB-Luc A549/NF-κBLuc.
The compound obtained in Examples each was added to A549/NF-κBLuc and one hour after that, IL-1β capable of activating NF-κB was added. The incubation was further continued for 3 hours.
NF-κB Inhibitory Activity (IC50) of Substituted Benzoic Acid Derivitives: […]

In order of falling IC50:
1. COC1=C(OC)C(=O)C(Cc2cccc(C(=O)Nc3cccnc3)c2O)=C(C)C1=O [Example 207, N-(Pyridin-3-yl)-3-(5,6-dimethoxy-3-methyl-1,4-benzoquinon-2-yl)methyl-2-hydroxybenzamide]  98 µg/mL (≈ 240 µM)
2. COC1=C(OC)C(=O)C(Cc2ccc(OC(C)=O)c(C(=O)Nc3ccc(Cl)nc3)c2)=C(C)C1=O [Example 184, N-(6-Chloropyridin-3-yl)-5-(5,6-dimethoxy-3-methyl-1,4-benzoquinon-2-yl)methyl-2-acetoxybenzamide]  56 µg/mL (≈ 115 µM)
3. COC1=C(OC)C(=O)C(Cc2ccc(O)c(C(=O)Nc3cccnc3)c2)=C(C)C1=O.CS(=O)(=O)O [Example 202, N-(Pyridin-3-yl)-5-(5,6-dimethoxy-3-methyl-1,4-benzoquinon-2-yl)methyl-2-hydroxybenzamide (methanesulfonate)]  20 µg/mL
4. COC1=C(OC)C(=O)C(Cc2ccc(O)c(C(=O)Nc3ccc(OC)nc3)c2)=C(C)C1=O [Example 181, N-(6-Methoxypyridin-3-yl)-5-(5,6-dimethoxy-3-methyl-1,4-benzoquinon-2-yl)methyl-2-hydroxybenzamide]  11 µg/mL (≈ 25.1 µM)
5. COC1=C(OC)C(=O)C(Cc2ccc(O)c(C(=O)Nc3cccnc3Cl)c2)=C(C)C1=O [Example 187, N-(2-Chloropyridin-3-yl)-5-(5,6-dimethoxy-3-methyl-1,4-benzoquinon-2-yl)methyl-2-hydroxybenzamide]  2 µg/mL (≈ 4.52 µM)

Test system: not given
Assay: not given
Details: not given

First: COC1=C(OC)C(=O)C(Cc2ccc(O)c(C(=O)Nc3ccc(OC)nc3)c2)=C(C)C1=O [Example 181, N-(6-Methoxypyridin-3-yl)-5-(5,6-dimethoxy-3-methyl-1,4-benzoquinon-2-yl)methyl-2-hydroxybenzamide]
Second: COC1=C(OC)C(=O)C(Cc2ccc(C(=O)Nc3ccc(OC)nc3)c(O)c2)=C(C)C1=O [Example 135, N-(6-Methoxypyridin-3-yl)-4-(5,6-dimethoxy-3-methyl-1,4-benzoquinon-2-yl)methyl-2-hydroxybenzamide]
The melting point of the first is lower: 169 to 170 °C for the first, 194.3 to 196.5 °C for the second.

Compared with `COC1=C(OC)C(=O)C(Cc2ccc(O)c(C(=O)Nc3cccnc3Cl)c2)=C(C)C1=O` [Example 187, N-(2-Chloropyridin-3-yl)-5-(5,6-dimethoxy-3-methyl-1,4-benzoquinon-2-yl)methyl-2-hydroxybenzamide], `COC1=C(OC)C(=O)C(Cc2ccc(C(=O)Nc3cccnc3Cl)c(O)c2)=C(C)C1=O` [Example 133] is higher in melting point: 152 to 154 °C for the first, 200.2 to 202.6 °C for the second.

Compared with `COC1=C(OC)C(=O)C(Cc2ccc(O)c(C(=O)Nc3cccnc3)c2)=C(C)C1=O.CS(=O)(=O)O` [Example 202, N-(Pyridin-3-yl)-5-(5,6-dimethoxy-3-methyl-1,4-benzoquinon-2-yl)methyl-2-hydroxybenzamide (methanesulfonate)], `COC1=C(OC)C(=O)C(Cc2ccc(C(=O)Nc3cccnc3)c(O)c2)=C(C)C1=O` [Example 139, N-(Pyridin-3-yl)-4-(5,6-dimethoxy-3-methyl-1,4-benzoquinon-2-yl)methyl-2-hydroxybenzamide] is lower in melting point: 149.5 to 152 °C for the first, 138.1 to 139.7 °C for the second.

Compared with `COC1=C(OC)C(=O)C(Cc2ccc(OC(C)=O)c(C(=O)Nc3ccc(Cl)nc3)c2)=C(C)C1=O` [Example 184, N-(6-Chloropyridin-3-yl)-5-(5,6-dimethoxy-3-methyl-1,4-benzoquinon-2-yl)methyl-2-acetoxybenzamide], `COC1=C(OC)C(=O)C(Cc2ccc(C(=O)Nc3ccc(Cl)nc3)c(O)c2)=C(C)C1=O` [Example 131, N-(6-Chloropyridin-3-yl)-4-(5,6-dimethoxy-3-methyl-1,4-benzoquinon-2-yl)methyl-2-hydroxybenzamide] is higher in melting point: 74.5 to 77.5 °C for the first, 200.2 to 201.9 °C for the second.

First: COC1=C(OC)C(=O)C(Cc2cccc(C(=O)Nc3cccnc3)c2O)=C(C)C1=O [Example 207, N-(Pyridin-3-yl)-3-(5,6-dimethoxy-3-methyl-1,4-benzoquinon-2-yl)methyl-2-hydroxybenzamide]
Second: COC1=C(OC)C(=O)C(Cc2cccc(C(=O)Nc3ccc(C(F)(F)F)cc3)c2O)=C(C)C1=O [Example 166, N-[3-(5,6-Dimethoxy-3-methyl-1,4-benzoquinon-2-yl)methyl-2-hydroxybenzoyl]-4-trifluoromethylaniline]
The melting point of the first is higher: 169 to 171 °C for the first, 129 to 131.5 °C for the second.

First: COC1=C(OC)C(=O)C(Cc2cccc(C(=O)Nc3ccc(N4CCOCC4)cc3)c2O)=C(C)C1=O [Example 179, N-[3-(5,6-Dimethoxy-3-methyl-1,4-benzoquinon-2-yl)methyl-2-hydroxybenzoyl]-4-morpholinoaniline]
Second: COC1=C(OC)C(=O)C(Cc2cccc(C(=O)Nc3ccc(N4CCOCC4)cc3)c2OC(C)=O)=C(C)C1=O [Example 178, N-[3-(5,6-Dimethoxy-3-methyl-1,4-benzoquinon-2-yl)methyl-2-acetoxybenzoyl]-4-morpholinoaniline]
The melting point of the first is higher: 177.5 to 180.5 °C for the first, 168 to 171 °C for the second.

Compared with `CCOC(=O)c1ccc(NC(=O)c2cc(CC3=C(C)C(=O)C(OC)=C(OC)C3=O)ccc2OCc2cccnc2)cc1` [Example 167, Ethyl N-[5-(5,6-dimethoxy-3-methyl-1,4-benzoquinon-2-yl)methyl-2-(3-pyridylmethyloxy)benzoyl]-4-aminobenzoate], `COC1=C(OC)C(=O)C(Cc2ccc(OCc3cccnc3)c(C(=O)NC3CC3)c2)=C(C)C1=O` [Example 170, N-Cyclopropyl-5-(5,6-dimethoxy-3-methyl-1,4-benzoquinon-2-yl)methyl-2-(3-pyridylmethyloxy)benzamide] is higher in melting point: 83 to 85.5 °C for the first, 87 to 89.5 °C for the second.

Compared with `COC1=C(OC)C(=O)C(Cc2ccc(O)c(C(=O)NC3CCCCC3)c2)=C(C)C1=O` [Example 162, N-Cyclohexyl-5-(5,6-dimethoxy-3-methyl-1,4-benzoquinon-2-yl)methyl-2-hydroxybenzamide], `COC1=C(OC)C(=O)C(Cc2ccc(O)c(C(=O)NC3CC3)c2)=C(C)C1=O` [Example 160, N-Cyclopropyl-5-(5,6-dimethoxy-3-methyl-1,4-benzoquinon-2-yl)methyl-2-hydroxybenzamide] is higher in melting point: 107 to 109 °C for the first, 111 to 112 °C for the second.

First: CC(=O)Oc1ccc(CC2=C(C)C(=O)C(C)=C(C)C2=O)cc1C(=O)Nc1cccnc1Cl [Example 236, N-(2-Chloropyridin-3-yl)-5-(3,5,6-trimethyl-1,4-benzoquinon-2-yl)methyl-2-acetoxybenzamide]
Second: COC1=C(OC)C(=O)C(Cc2ccc(OC(C)=O)c(C(=O)Nc3ccnc(OC)c3)c2)=C(C)C1=O [Example 230, N-(2-Methoxypyridin-4-yl)-5-(5,6-dimethoxy-3-methyl-1,4-benzoquinon-2-yl)methyl-2-acetoxybenzamide]
The melting point of the first is lower: 130 to 131 °C for the first, 138 to 140.5 °C for the second.

First: COC1=C(OC)C(=O)C(Cc2ccc(O)c(C(=O)Nc3cccc([N+](=O)[O-])c3)c2)=C(C)C1=O [Example 144, N-[5-(5,6-Dimethoxy-3-methyl-1,4-benzoquinon-2-yl)methyl-2-hydroxybenzoyl]-3-nitroaniline]
Second: COC1=C(OC)C(=O)C(Cc2ccc(O)c(C(=O)Nc3ccnc(OC)c3)c2)=C(C)C1=O [Example 231, N-(2-Methoxypyridin-4-yl)-5-(5,6-dimethoxy-3-methyl-1,4-benzoquinon-2-yl)methyl-2-hydroxybenzamide]
The melting point of the first is lower: 153 to 154 °C for the first, 218 to 220.5 °C for the second.

First: COC1=C(OC)C(=O)C(Cc2ccc(OC(C)=O)c(C(=O)Nc3ccccc3[N+](=O)[O-])c2)=C(C)C1=O [Example 153, N-[5-(5,6-Dimethoxy-3-methyl-1,4-benzoquinon-2-yl)methyl-2-acetoxybenzoyl]-2-nitroaniline]
Second: COC1=C(OC)C(=O)C(Cc2ccc(OC(C)=O)c(C(=O)Nc3cc(OC)ccc3OC)c2)=C(C)C1=O [Example 219, N-[5-(5,6-Dimethoxy-3-methyl-1,4-benzoquinon-2-yl)methyl-2-acetoxybenzoyl]-2,5-dimethoxyaniline]
The melting point of the first is lower: 97.5 to 100 °C for the first, 118.5 to 120 °C for the second.

First: COC1=C(OC)C(=O)C(Cc2ccc(OC(C)=O)c(C(=O)NC3CC3)c2)=C(C)C1=O [Example 159, N-Cyclopropyl-5-(5,6-dimethoxy-3-methyl-1,4-benzoquinon-2-yl)methyl-2-acetoxybenzamide]
Second: COC1=C(OC)C(=O)C(Cc2ccc(O)c(C(=O)Nc3ccc(C(=O)O)cn3)c2)=C(C)C1=O [Example 198, N-(5-Hydroxycarbonylpyridin-2-yl)-5-(5,6-dimethoxy-3-methyl-1,4-benzoquinon-2-yl)methyl-2-hydroxybenzamide]
The melting point of the first is lower: 95.5 to 98 °C for the first, 238 to 241 °C for the second.

`COC1=C(OC)C(=O)C(Cc2ccc(O)c(C(=O)Nc3ccc(-c4ccn[nH]4)cc3)c2)=C(C)C1=O` [Example 211, N-[5-(5,6-Dimethoxy-3-methyl-1,4-benzoquinon-2-yl)methyl-2-hydroxybenzoyl]-4-(1H-pyrazol-3-yl)aniline] and `COC1=C(OC)C(=O)C(Cc2ccc(C(=O)Nc3ccncc3)c(O)c2)=C(C)C1=O` [Example 140, N-(Pyridin-4-yl)-4-(5,6-dimethoxy-3-methyl-1,4-benzoquinon-2-yl)methyl-2-hydroxybenzamide] cannot be ordered by melting point: 182 to 185.5 °C for the first, 181.4 to 183.3 °C for the second.

First: COC1=C(OC)C(=O)C(Cc2ccc(O)c(C(=O)Nc3ncccc3C(=O)O)c2)=C(C)C1=O [Example 195, N-(3-Hydroxycarbonylpyridin-2-yl)-5-(5,6-dimethoxy-3-methyl-1,4-benzoquinon-2-yl)methyl-2-hydroxybenzamide]
Second: COC1=C(OC)C(=O)C(Cc2ccc(C(=O)Nc3ccc(S(=O)(=O)C(F)(F)F)cc3)c(O)c2)=C(C)C1=O [Example 137, N-[4-(5,6-Dimethoxy-3-methyl-1,4-benzoquinon-2-yl)methyl-2-hydroxybenzoyl]-4-(trifluoromethylsulfonyl)aniline]
The melting point of the first is lower: 134 to 136.5 °C for the first, 186.9 to 187.5 °C for the second.

First: COC1=C(OC)C(=O)C(Cc2cccc(C(=O)Nc3ccc(Cl)cc3Cl)c2O)=C(C)C1=O [Example 177, N-[3-(5,6-Dimethoxy-3-methyl-1,4-benzoquinon-2-yl)methyl-2-hydroxybenzoyl]-2,4-dichloroaniline]
Second: COC1=C(OC)C(=O)C(Cc2ccc(O)c(C(=O)Nc3c(Cl)cc(OC(F)(F)F)cc3Cl)c2)=C(C)C1=O [Example 192, N-[5-(5,6-Dimethoxy-3-methyl-1,4-benzoquinon-2-yl)methyl-2-hydroxybenzoyl]-2,6-dichloro-4-trifluoromethoxyaniline]
The melting point of the first is higher: 147 to 150 °C for the first, 138 to 141 °C for the second.

For `CC1=C(C)C(=O)C(Cc2ccc(O)c(C(=O)Nc3ccncc3)c2)=C(C)C1=O` [Example 238, N-(Pyridin-4-yl)-5-(3,5,6-trimethyl-1,4-benzoquinon-2-yl)methyl-2-hydroxybenzamide], the melting point was 245 to 247 °C.

Source: patent publication US7064124B2, “NF-κB inhibitor containing substituted benzoic acid derivative as active ingredient” (Daiichi Suntory Pharma Co., Ltd., priority 2001, dated 2006)
